# Results reported in US6685915B2, “Extended-linear polymeric contrast agents, and synthesizing methods, for medical imaging” (General Electric Company, priority 1999, dated 2004).
# Assay: blood circulation time
# Type: in vivo
# Description: Furthermore, the blood circulation times can be adjusted by varying the polymer length.
compound,measurement,value
"O=C([O-])CN(CCN(CC(=O)[O-])CC(=O)O)CCN(CC(=O)[O-])CC(=O)O.[Gd+3] [Gd-DTPA, gadolinuim- diethylentriaminepentaaceticacid]",circulation time constant,15 min
